{"source": "patent US20100160351A1", "about": "“PHARMACEUTICAL COMPOSITIONS AND METHODS FOR TREATING HYPERURICEMIA AND RELATED DISORDERS” (NUON THERAPEUTICS, INC., priority 2008, published 2010)", "test_system": "monosodium urate (MSU) crystal-induced air pouch inflammation", "assay": "Air Pouch Model 2: MSU crystal air pouch, rodent model of gout", "format": "in vivo, male Sprague-Dawley rats", "details": "for Average Exudate Volume, Mean / Average Plasma Extravasation, OD620 nm, Mean / Total WBC in Sample, Mean / WBC in exudate, Mean: 4 h after MSU", "protocol": "The objective of this study was to evaluate the anti-inflammatory potency of Tranilast. This evaluation was carried out in male Sprague-Dawley rats in a rodent model of gout. The animals were injected subcutaneously with 20 ml of sterile air, followed three days later by a supplemental injection with 20 ml of sterile air. Six days after the initial sterile air injection, the rats were injected intravenously with Evan's Blue and pretreated for thirty minutes with oral administration of 25 mg/kg, 50 mg/kg, 100 mg/kg or 200 mg/kg tranilast. After the pretreatment period, the rats were injected with 150 mg of monosodium urate (MSU) crystals (10 mg/ml) into the air pouch. Four hours later, the air pouch was injected with 5 ml heparinized saline and the entire contents of the air pouch removed, recording the total volume. The air pouch contents were evaluated for plasma extravasation and total white blood cell (WBC) count.\n(§1) On day 0 the rats were anesthetized in a biological cabinet, the nape of the neck was cleansed with 70% isopropanol followed by iodine tincture (VEDCO, lot L021976). Twenty ml sterile (0.22 μm, Millipore, Cat. SLGSV255F, lot R8J1494130, exp July 2011) air was injected subcutaneously using a 23 G×2 inch needle fixed to a 20 ml syringe. The rats were returned to routine housing. No adverse reactions were observed.\nas §1, with “day 3” for “day 0”, “μm, Fisher Scientific,” for “μm, Millipore,”, “Cat. 09-720-3,” for “Cat. SLGSV255F,”, “lot R5SN25683)” for “lot R8J1494130, exp July 2011)”\nOn day 6 the rats were weighed (Mettler, Model PE3000, SN: F69474) and injected intravenously injected with 2 ml/kg Evans Blue. The animals were dosed orally with 0.5 ml/kg, 1 ml/kg, 2; ml/kg or 4 ml/kg tranilast, or 4 ml/kg vehicle.\nThirty minutes after test material administration, the rats were anesthetized and five groups (2-6) were injected into the air pouch with 15 ml MSU using a 19 G×2 inch needle fitted to a 20 ml syringe. Group 1 was injected with 15 ml saline. The rats were returned to their cages, no adverse affects were observed.\nFour hours after MSU/saline injection, the rats were anesthetized and 5 ml 10 U/ml heparinized saline was injected into the air pouch. The air pouch was gently massaged, the contents immediately removed using a 14 G×1 inch needle fitted to a 6 ml syringe, and the exudate volume recorded. An aliquot of the exudate was transferred to heparin-treated microtainer tubes (Becton Dickinson, Cat. 365958, lot 9140110, expo July 2010) for white blood cell (WBC) counting. The remainder of the exudate was centrifuged (Hermle Labrotechnik, Model Z200A, SN: 44060036), the supernatants removed and evaluated at OD620nm (Spectronic Unicam, Model 4000 1/4, SN: 3SGD003006) for plasma extravasation.", "key": {"[1]": {"details": "25 mg/kg oral, 30 min before MSU"}, "[2]": {"details": "50 mg/kg oral, 30 min before MSU"}, "[3]": {"details": "100 mg/kg oral, 30 min before MSU"}, "[4]": {"details": "200 mg/kg oral, 30 min before MSU"}, "[5]": {"details": "highest dose 200 mg/kg oral, 30 min before MSU"}, "[6]": {"details": "oral, sigmoidal dose-response (variable slope) analysis"}}}
{"smiles": "COc1ccc(/C=C/C(=O)Nc2ccccc2C(=O)O)cc1OC", "note": "[Tranilast, 2-[[3-(3,4-dimethoxyphenyl)-1-oxo-2-propenyl]amino]benzoic acid]", "values": [{"measurement": "Average Exudate Volume, Mean", "setting": "[1]", "result": 6.5, "unit": "mL"}, {"measurement": "Average Plasma Extravasation, OD620 nm, Mean", "setting": "[1]", "result": 1.431}, {"measurement": "Total WBC in Sample, Mean", "setting": "[1]", "result": 20550000}, {"measurement": "WBC in exudate, Mean", "setting": "[1]", "result": 3196000, "unit": "cells/ml"}, {"measurement": "Average Exudate Volume, Mean", "setting": "[2]", "result": 8.6, "unit": "mL"}, {"measurement": "Average Plasma Extravasation, OD620 nm, Mean", "setting": "[2]", "result": 1.048}, {"measurement": "Total WBC in Sample, Mean", "setting": "[2]", "result": 12476000}, {"measurement": "WBC in exudate, Mean", "setting": "[2]", "result": 1557000, "unit": "cells/ml"}, {"measurement": "Average Exudate Volume, Mean", "setting": "[3]", "result": 8.0, "unit": "mL"}, {"measurement": "Average Plasma Extravasation, OD620 nm, Mean", "setting": "[3]", "result": 0.939}, {"measurement": "Total WBC in Sample, Mean", "setting": "[3]", "result": 10629600}, {"measurement": "WBC in exudate, Mean", "setting": "[3]", "result": 1566000, "unit": "cells/ml"}, {"measurement": "Average Exudate Volume, Mean", "setting": "[4]", "result": 3.2, "unit": "mL"}, {"measurement": "Average Plasma Extravasation, OD620 nm, Mean", "setting": "[4]", "result": 0.819}, {"measurement": "Total WBC in Sample, Mean", "setting": "[4]", "result": 10305200}, {"measurement": "WBC in exudate, Mean", "setting": "[4]", "result": 3516000, "unit": "cells/ml"}, {"measurement": "inhibition of plasma extravasation", "setting": "[5]", "result": 42, "unit": "%"}, {"measurement": "inhibition of white blood cell infiltration", "setting": "[5]", "result": 80, "unit": "%"}, {"measurement": "effect on MSU-induced parameters (plasma extravasation, leukocyte infiltration)", "setting": "oral 25-200 mg/kg, 30 min before MSU", "result": "dose-dependent inhibition"}, {"measurement": "IC50 effect on plasma extravasation", "setting": "[6]", "result": 45, "unit": "mg/kg"}, {"measurement": "IC50 effect on white blood cell infiltration", "setting": "[6]", "result": 16, "unit": "mg/kg"}]}
